Data on 2 compounds can be found in article PMC7156724, “Potent BRD4 inhibitor suppresses cancer cell-macrophage interaction” (Nature Communications, 2020).

One data set deals with A375 human melanoma. Nature of the data set: A375 human melanoma xenograft tumor growth. The format is in vivo, mouse. The conditions noted are these: Fig.3e, 5 Days on, 2 Days off / week x3, individual animals. The text has this:
PO, oral administration; QD, once daily; BID, twice daily. b–d Tumor growth curves for A2780 ovarian tumor (n = 5) (b), TMD8 large B cell lymphoma (n = 6) (c), and B16F10 melanoma (n = 5) (d) bearing mice treated with the indicated compounds once daily for 11-21 days. e, f Tumor growth curves for A375 melanoma (n = 6) (e), and patient-derived xenograft (PDX) of melanoma (n = 5) (f) bearing mice treated with the indicated compounds once daily (5 days on, 2 days off) for 21 days. For d–f, NHWD-870 used is NHWD-870-HCl synthesized using Suzuki coupling route. Data are presented as mean ± SEM in (a, b, d, f) and mean + SEM in (c, e). p values were calculated using two-tailed, unpaired t tests. *p < 0.05; **p < 0.01; ***p < 0.001. Source data are provided as a Source Data file.
4–6 weeks old female BALB/c nude mice were used for most experiments, with the exception of 6–8 weeks old female C57BL/6 mice were used for B16F10 experiments, and 6–8 weeks old male BALB/c nude mice and SD rats were used for pharmacokinetic experiments. All animals were purchased from Shanghai SIPPR-Bk Lab Animal Co., Ltd. All animals were housed under a regimen of 12 h light/12 h dark cycles and specific pathogen-free conditions. 5×10^6 NCI-H526, ES-2, MDA-MB231, A2780, A375, B16F10, and TMD-8 cells (0.1 ml) were injected subcutaneously into female nude mice. The melanoma patient-derived xenograft model was derived from a human melanoma sample (BRAF, NARS and NF1 wild type, and p53 mutant) removed from a patient in Xiangya Hospital. Surgically removed tumor fragments were implanted subcutaneously into female NSG mice. When the tumors grew to ~1000 mm^3, they were harvested and cryopreserved or immediately re-implanted for expansion or experiments. Mouse body weight and tumor sizes were measured every 3 days. Once the tumors grew to 150–200 mm^3, mice were treated with the compounds as described in the Figures. 1 × 10^6 A2780 cells (1 ml) were injected into the abdominal cavity of nude mice. Ascitic volume and tumor weight were measured by an electronic balance. All the procedures were evaluated and approved by the Institutional Animal Care and Use Committee of Central South University and Yale University. […]
We apologize for not clearly labeling the experiments using compounds synthesized using Suzuki coupling method. In the revised manuscript, we modified the text to clearly mark the animal models in Fig 3d-f were tested using NHWD-870 synthesized using Suzuki […]
compared the activity of NHWD-870 synthesized using Stille coupling route with the NHWD-870 synthesized from Suzuki coupling route (Reviewer Figure 1). […]
activity and possible toxicity were identical.
Reviewer Figure 1 NHWD-870 synthesized through Stille or Suzuki route has similar properties in vivo. Tumor bearing mice were treated with 2mg/kg of the indicated compounds, orally administrated once daily for 21 days. Shown are tumor growth curves (a) and body weight change (b) for A375 melanoma bearing mice. […]
986158 in terms of potency, but apart from with the A375 melanocyte cell line, the advance seems relatively moderate. With such similar compounds, the pharmacokinetic properties and ability to accumulate at the desired site is often more important. Figure S6d (prev. Fig. 3d) in the previous
On the technique in general: In xenograft studies the graft and the host belong to different species.

A short description of data set [1]: Metabolic stability assay, rat liver microsomes. The conditions noted are these: in % (unit assumed). The method, then: (§1) 7. Metabolic stability assay. The metabolic profile of NHWD-870 was determined using mouse, rat, dog, monkey, and human liver microsomes using the protocols […]
(§2) No. Compound ID Exat Mass Stock Conc.
(§3) 1) 100 mM potassium phosphate buffer, PH7.4; 2) 10mM MgCI2
(§4) 1) Intermediate solution: Dilute 5 μL of compound or control from stock solution (10 mM) with 45 uL DMSO,then mixed with 450 μL 1:1 Methanol/Water (Conc.: 10 0 […]
(§5) 2) Working solution: Dilute 50 μL from intermediate solution with 450 μL 100 mM potassium phosphate buffer (Conc.: 10 μM, 4.5%MeOH)
(§6) (3) NADPH regenerating system (final Isocitric dehydrogenase conc.= 1 unit/mL at […]
(§7) 1) β-Nicotinamide adenine dinucleotide phosphate, Vendor: sigma Cat. No. N0505
(§8) 2) Isocitric acid, Vendor: Sigma Cat. No. I1252
(§9) 3) Isocitric dehydrogenase, Vendor: sigma Cat. No. I2002
(§10) (4) Liver microsome solution preparation (final concentration o f 0.5 mg protein/mL) […]
(§11) Cold ACN including 100 ng/mL Tolbutamide and 100 ng/mL Labetalol as internal […]
(§12) 1) Add 10 μL compound or control working solution/well to all plates (T0, T5, T10, T20, T30, T60, NCF60) except matrix blank.
(§13) 2) Dispense 680 μL/well microsome solution to 96-well plate as reserv oir according to […]
(§14) plate map. Then add 80 μL/well to every plate by Apricot, incubate the mixture of microsome solution and compound at 37℃ for about 10 min.
(§15) 3) Add 10 μL 100 mM potassium phosphate buffer/well to NCF60, incubate at 37℃, […]
(§16) 4) After pre-warming, dispense 90 μL/well NADPH regenerating system to 96-well plate as reservoir according to the plate map. Then add 10 μL/well to every plate by Apricot to start reaction.
(§17) 5) Incubate at 37℃, start timer 2.
(§18) 6) Add 300 (μL/well) stop solution (cold in 4℃, including 100 ng/mL Tolbutamide and 100 ng/mL Labetalol) to terminate the reaction.
(§19) 7) The sampling plates are shaked for approx 10 min.
(§20) 8) Samples are centrifuged at 4000 rpm for 20 min under 4℃.
(§21) 9) While centrifuging, load 8×new 96-well plate with 300 μL HPLC water, then transfer 100 μL supernatant, mixed for LC/MS/MS.
(§22) Use equation of first order kinetics to calculate t1/2 and Clin t(mic): […]
(§23) Equation of first order kinetics: […]

Data set [2] in a line: Metabolic stability assay, monkey liver microsomes. The conditions noted are these: in % (unit assumed). The method, then: as §1, §2, §3, §4, §5, §6, §7, §8, §9, §10, §11, §12, §13, §14, §15, §16, §17, §18, §19, §20, §21, §22, §23
The nature of data set [3]: Metabolic stability assay, human liver microsomes. The conditions noted are these: in % (unit assumed). As for the experimental part:
as §1, §2, §3, §4, §5, §6, §7, §8, §9, §10, §11, §12, §13, §14, §15, §16, §17, §18, §19, §20, §21, §22, §23

Data set [4] is described as follows: Metabolic stability assay, dog liver microsomes. The conditions noted are these: in % (unit assumed). The method, then:
as §1, §2, §3, §4, §5, §6, §7, §8, §9, §10, §11, §12, §13, §14, §15, §16, §17, §18, §19, §20, §21, §22, §23
In general terms: Liver microsomes are a subcellular fraction often used to study metabolism.

Where “and” joins values, the source holds several entries; their conditions need not be identical. Identical values can stand only once.

Regarding `Cc1nnn(C)c1-c1cnc2c3c4cnn(C)c4ccc3n([C@H](c3ccccc3)C3CCOCC3)c2c1.Cl` [NHWD-870-HCl], the “Tumor volume” value was 124.032 mm3 and 120.497 mm3 and 183.857 mm3 and 155.659 mm3 and 140.462 mm3 and 187.897 mm3 in the data set on A375 human melanoma (2 mg/kg PO QD, day 0); 125.079 mm3 and 148.629 mm3 and 180.193 mm3 and 187.061 mm3 and 149.381 mm3 and 207.594 mm3 in the data set with A375 human melanoma (2 mg/kg PO QD, day 4); 119.983 mm3 and 238.282 mm3 and 335.392 mm3 and 359 mm3 and 146.599 mm3 and 237.29 mm3 in the data set with A375 human melanoma (2 mg/kg PO QD, day 7); 204.214 mm3 and 361.187 mm3 and 438.176 mm3 and 511.029 mm3 and 273.013 mm3 and 310.165 mm3 with A375 human melanoma (2 mg/kg PO QD, day 11); 396.493 mm3 and 659.962 mm3 and 783.286 mm3 and 668.171 mm3 and 489.424 mm3 and 499.77 mm3 in the data set on A375 human melanoma (2 mg/kg PO QD, day 14); 580.818 mm3 and 828.001 mm3 and 941.933 mm3 and 817.427 mm3 and 615.591 mm3 and 523.033 mm3 with A375 human melanoma (2 mg/kg PO QD, day 18). For the same compound, the “Tumor volume” value is 932.477 mm3 and 934.695 mm3 and 1116.85 mm3 and 993.943 mm3 and 830.361 mm3 and 759.477 mm3 in the data set on A375 human melanoma (2 mg/kg PO QD, day 21); 187.407 mm3 and 129.823 mm3 and 123.552 mm3 and 162.978 mm3 and 197.865 mm3 and 111.638 mm3 in the data set on A375 human melanoma (3 mg/kg PO QD, day 0); 180.115 mm3 and 100.661 mm3 and 101.808 mm3 and 169.071 mm3 and 201.772 mm3 and 81.9823 mm3 in the data set with A375 human melanoma (3 mg/kg PO QD, day 4); 354.946 mm3 and 108.136 mm3 and 132.2 mm3 and 290.979 mm3 and 435.513 mm3 and 83.7227 mm3 in the data set with A375 human melanoma (3 mg/kg PO QD, day 7); 333.816 mm3 and 123.623 mm3 and 211.51 mm3 and 368.326 mm3 and 511.795 mm3 and 108.132 mm3 in the data set on A375 human melanoma (3 mg/kg PO QD, day 11); 869.938 mm3 and 282.077 mm3 and 467.223 mm3 and 627.735 mm3 and 985.207 mm3 and 153.932 mm3 in the data set with A375 human melanoma (3 mg/kg PO QD, day 14). For the same compound, the “Tumor volume” value was 947.479 mm3 and 354.935 mm3 and 602.443 mm3 and 703.598 mm3 and 1037.76 mm3 and 172.297 mm3 with A375 human melanoma (3 mg/kg PO QD, day 18); 1152.24 mm3 and 633.313 mm3 and 890.897 mm3 and 1097.51 mm3 and 1306.53 mm3 and 328.738 mm3 with A375 human melanoma (3 mg/kg PO QD, day 21); 129.244 mm3 and 160.038 mm3 and 169.001 mm3 with A375 human melanoma (Group 4, 1 mg/kg PO QD, day 0); 194.913 mm3 and 185.189 mm3 in the data set on A375 human melanoma (Group 4, 1 mg/kg PO QD, day 4); 287.4 mm3 and 179.028 mm3 with A375 human melanoma (Group 4, 1 mg/kg PO QD, day 7); 471.867 mm3 and 223.232 mm3 in the data set with A375 human melanoma (Group 4, 1 mg/kg PO QD, day 11). Further, the “Tumor volume” value with A375 human melanoma (Group 4, 1 mg/kg PO QD, day 14) was 761.481 mm3 and 416.901 mm3; with A375 human melanoma (Group 4, 1 mg/kg PO QD, day 18) it was 1193.81 mm3 and 502.306 mm3; in the data set on A375 human melanoma (Group 4, 1 mg/kg PO QD, day 21) it was 1260.17 mm3 and 803.56 mm3 and 2033.79 mm3.
As for `C[C@]12CC[C@H]3[C@@H](CCC4=CC(=O)CC[C@@]43C)[C@@H]1CC[C@@H]2O` [Testosterone], the “Remaining in rat liver microsomes (Sup Fig.6b)” value in data set [1] (time 0) came out at 100; in data set [1] (time 5), 0.549; in data set [1] (time 10), 0; in data set [1] (time 20), 0; in data set [1] (time 30), 0; in data set [1] (time 60) it was 0. In addition, the “Remaining in Monkey liver microsomes (Sup Fig.6d)” value in data set [2] (time 0) worked out at 100; in data set [2] (time 5) it was 72.293; in data set [2] (time 10) it was 57.852; in data set [2] (time 20), 51.22; in data set [2] (time 30) it was 37.184; in data set [2] (time 60), 14.336. Besides, the “Remaining in Human liver microsomes (Sup Fig.6e)” value was 100 in data set [3] (time 0); 82.349 in data set [3] (time 5); 75.006 in data set [3] (time 10); 64.528 in data set [3] (time 20); 50.522 in data set [3] (time 30); 21.403 in data set [3] (time 60). For the same compound, the “Remaining in Dog liver microsomes (Sup Fig.6c)” value is reported as 100 in data set [4] (time 0); 51.913 in data set [4] (time 5); 27.194 in data set [4] (time 10); 14.015 in data set [4] (time 20); 6.615 in data set [4] (time 30); 0 in data set [4] (time 60).
